Measurements reported in ChEMBL document CHEMBL5046254, “Mycobactin Analogues with Excellent Pharmacokinetic Profile Demonstrate Potent Antitubercular Specific Activity and Exceptional Efflux Pump Inhibition” (J Med Chem, 2022).
In brackets after ≈: the same amount, converted by molar mass.

How the values were obtained:
[1] = tested on: Mycobacterium tuberculosis variant bovis; assay: Antimicrobial activity against Mycobacterium bovis BCG ATCC 35734 cultured in GAST media incubated for 5 days by resazurin microtiter assay; assay type: functional; conditions: BCG ATCC 35734, 120 h, time 5 day
[2] = tested on: Mycobacterium tuberculosis variant bovis; assay: Antimicrobial activity against Mycobacterium bovis BCG ATCC 35734 cultured in GAST-Fe media incubated for 5 days by resazurin microtiter assay; assay type: functional; conditions: BCG ATCC 35734, 120 h, time 5 day

SMILES | MIC90 [1] [µg/mL] | MIC90 [2] [µg/mL]
NC(=S)N1N=C(c2ccccc2O)CC1c1ccccc1 (stereo not drawn) | 16 (≈ 53.8 µM) | 32 (≈ 108 µM)
NC(=S)N1N=C(c2ccccc2O)CC1c1ccc(O)cc1 (stereo not drawn) | 16 (≈ 51.1 µM) | 32 (≈ 102 µM)
Oc1ccccc1C1=NNC(c2ccc(Cl)cc2)C1 (stereo not drawn) | 8 (≈ 29.3 µM) | 32 (≈ 117 µM)
Oc1ccccc1C1=NNC(c2ccc(Br)cc2)C1 (stereo not drawn) | 8 (≈ 25.2 µM) | 64 (≈ 202 µM)
